Tests used:
[1] = biological target: T1, Adrenergic receptor alpha-2 (Rattus norvegicus, UniProt P22086+P19328+P22909); experiment: Binding affinity to alpha-2 adrenergic receptor of rat cerebral cortex assayed using [3H]yohimbine as radioligand; type: tissue-based
T1 sequence (P22086 whole entry): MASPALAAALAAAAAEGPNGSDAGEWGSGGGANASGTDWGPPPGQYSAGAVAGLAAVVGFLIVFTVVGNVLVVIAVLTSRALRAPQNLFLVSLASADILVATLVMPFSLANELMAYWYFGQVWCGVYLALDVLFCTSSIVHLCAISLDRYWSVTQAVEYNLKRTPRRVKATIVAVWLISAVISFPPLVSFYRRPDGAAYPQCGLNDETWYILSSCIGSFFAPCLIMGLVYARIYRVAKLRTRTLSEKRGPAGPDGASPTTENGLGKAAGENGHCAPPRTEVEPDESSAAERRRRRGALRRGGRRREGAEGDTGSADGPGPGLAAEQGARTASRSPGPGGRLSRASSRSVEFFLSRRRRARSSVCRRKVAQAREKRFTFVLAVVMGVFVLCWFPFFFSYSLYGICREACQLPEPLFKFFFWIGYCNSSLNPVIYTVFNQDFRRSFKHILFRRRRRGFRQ
T1 sequence (P19328 whole entry): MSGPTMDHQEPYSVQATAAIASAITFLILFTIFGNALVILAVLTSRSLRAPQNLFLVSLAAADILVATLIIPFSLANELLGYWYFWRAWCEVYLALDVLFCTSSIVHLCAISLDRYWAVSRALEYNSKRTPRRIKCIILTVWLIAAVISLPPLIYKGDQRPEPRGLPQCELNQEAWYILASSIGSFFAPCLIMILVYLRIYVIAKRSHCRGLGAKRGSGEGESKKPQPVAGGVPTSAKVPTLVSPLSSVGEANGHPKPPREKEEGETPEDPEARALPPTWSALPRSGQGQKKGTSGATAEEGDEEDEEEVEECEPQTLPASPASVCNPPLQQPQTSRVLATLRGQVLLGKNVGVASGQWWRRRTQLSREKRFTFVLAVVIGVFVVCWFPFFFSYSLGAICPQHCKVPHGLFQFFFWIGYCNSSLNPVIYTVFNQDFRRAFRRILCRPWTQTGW
T1 sequence (P22909 whole entry): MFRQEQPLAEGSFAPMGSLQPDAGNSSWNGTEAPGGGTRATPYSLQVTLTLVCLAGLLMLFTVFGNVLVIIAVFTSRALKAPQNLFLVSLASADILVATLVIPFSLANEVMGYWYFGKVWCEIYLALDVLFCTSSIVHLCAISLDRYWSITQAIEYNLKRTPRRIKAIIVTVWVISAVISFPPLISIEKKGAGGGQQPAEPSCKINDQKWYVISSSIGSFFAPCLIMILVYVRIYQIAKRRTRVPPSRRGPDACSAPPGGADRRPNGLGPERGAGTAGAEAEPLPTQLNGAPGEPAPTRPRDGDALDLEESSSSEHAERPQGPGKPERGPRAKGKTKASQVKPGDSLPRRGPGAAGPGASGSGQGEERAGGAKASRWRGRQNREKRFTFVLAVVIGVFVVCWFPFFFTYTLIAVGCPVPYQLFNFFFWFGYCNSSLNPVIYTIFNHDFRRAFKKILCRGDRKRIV

[2] = biological target: T1, Adrenergic receptor alpha-2; experiment: Binding affinity to the alpha-2 adrenergic receptor of rat cerebral cortex assayed using [3H]idazoxan as radioligand; type: tissue-based
[3] = biological target: T2, Adrenergic receptor alpha-1 (Rattus norvegicus, UniProt P15823+P23944+P43140); experiment: Binding affinity determined to alpha-1 adrenergic receptor of rat cerebral cortex using [3H]prazosin as radioligand; type: tissue-based
T2 sequence (P15823 whole entry): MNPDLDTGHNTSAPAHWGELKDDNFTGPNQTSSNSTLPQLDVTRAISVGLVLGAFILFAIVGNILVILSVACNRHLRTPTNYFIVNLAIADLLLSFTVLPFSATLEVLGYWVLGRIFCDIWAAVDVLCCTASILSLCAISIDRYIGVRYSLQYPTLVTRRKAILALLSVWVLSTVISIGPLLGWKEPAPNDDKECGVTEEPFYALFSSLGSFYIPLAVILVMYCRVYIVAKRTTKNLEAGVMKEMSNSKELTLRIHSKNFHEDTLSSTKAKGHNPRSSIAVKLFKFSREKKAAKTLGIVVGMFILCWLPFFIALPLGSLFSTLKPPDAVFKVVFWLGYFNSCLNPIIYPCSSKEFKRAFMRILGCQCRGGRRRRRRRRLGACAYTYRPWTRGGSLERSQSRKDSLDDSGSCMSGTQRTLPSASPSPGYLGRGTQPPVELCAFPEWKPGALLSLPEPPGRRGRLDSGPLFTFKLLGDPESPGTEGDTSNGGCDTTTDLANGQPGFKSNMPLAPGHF
T2 sequence (P23944 whole entry): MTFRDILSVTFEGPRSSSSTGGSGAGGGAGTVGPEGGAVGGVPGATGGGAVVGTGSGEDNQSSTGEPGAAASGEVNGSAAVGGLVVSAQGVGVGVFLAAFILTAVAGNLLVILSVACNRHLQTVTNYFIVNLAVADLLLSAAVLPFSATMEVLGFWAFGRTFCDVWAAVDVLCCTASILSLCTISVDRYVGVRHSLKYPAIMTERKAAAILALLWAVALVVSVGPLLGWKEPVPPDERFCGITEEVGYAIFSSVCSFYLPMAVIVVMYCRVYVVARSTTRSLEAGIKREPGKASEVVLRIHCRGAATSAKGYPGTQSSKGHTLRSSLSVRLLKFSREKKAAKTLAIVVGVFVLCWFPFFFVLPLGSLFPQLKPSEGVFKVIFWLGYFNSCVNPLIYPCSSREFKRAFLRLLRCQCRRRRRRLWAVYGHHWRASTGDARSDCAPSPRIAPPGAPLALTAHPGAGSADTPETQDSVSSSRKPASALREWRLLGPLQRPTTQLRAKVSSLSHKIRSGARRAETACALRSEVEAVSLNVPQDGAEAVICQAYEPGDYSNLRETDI
T2 sequence (P43140 whole entry): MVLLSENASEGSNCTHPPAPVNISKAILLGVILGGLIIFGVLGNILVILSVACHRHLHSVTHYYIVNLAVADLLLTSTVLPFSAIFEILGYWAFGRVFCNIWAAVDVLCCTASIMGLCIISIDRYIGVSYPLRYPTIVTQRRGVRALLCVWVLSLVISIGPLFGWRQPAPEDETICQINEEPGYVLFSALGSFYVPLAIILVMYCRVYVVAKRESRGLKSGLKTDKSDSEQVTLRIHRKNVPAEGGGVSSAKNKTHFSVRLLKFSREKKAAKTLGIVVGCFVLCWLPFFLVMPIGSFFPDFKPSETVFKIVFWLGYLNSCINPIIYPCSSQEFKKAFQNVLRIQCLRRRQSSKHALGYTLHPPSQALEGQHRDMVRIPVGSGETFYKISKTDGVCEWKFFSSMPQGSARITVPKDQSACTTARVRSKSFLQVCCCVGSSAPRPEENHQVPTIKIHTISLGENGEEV

[4] = biological target: T3, Adrenergic receptor alpha-2 (Rattus norvegicus) (UniProt P22086+P19328+P22909); experiment: Selectivity ratio is the antilog of the [3H]-yohimbine pKi minus the [3H]prazosin pKi; type: protein assay
[5] = biological target: T1, Adrenergic receptor alpha-2; experiment: Binding affinity was determined against alpha-2 adrenergic receptor of rat cerebral cortex using [3H]idazoxan as radioligand; type: tissue-based
[6] = biological target: T3, Adrenergic receptor alpha-2 (Rattus norvegicus); experiment: Antilog of the [3H]-idazoxan pKi minus the [3H]yohimbine pKi was determined; type: protein assay
[7] = biological target: T1, Adrenergic receptor alpha-2; experiment: Binding affinity was determined against alpha-2 adrenergic receptor of rat cerebral cortex using [3H]yohimbine as radioligand; type: tissue-based

SMILES	Log Ki [1]	Log Ki [2]	Log Ki [3]	Selectivity ratio [4]	Log Ki [5]	Ratio [6]	Log Ki [7]
COc1cc2c(c(OC)c1)CN(CC1=NCCN1)CC2.Cl.Cl	-6.29	-7.2	< -5	–	–	–	–
Cl.Cl.c1ccc2c(c1)CN(CC1=NCCN1)C2	–	–	-5.43	30	-8.07	14	-6.91
COc1ccc2c(c1OC)CCN(CC1=NCCN1)C2.Cl.Cl	–	–	< -5	28	-6.24	0.6	-6.44
CCC1c2ccccc2CCN1CC1=NCCN1.Cl.Cl (stereo not drawn)	-6.16	-6.31	< -5	–	–	–	–
CC1c2ccccc2CCN1CC1=NCCN1.Cl.Cl (stereo not drawn)	-7.19	-7.32	-5.14	–	–	–	–
COc1ccc(OC)c2c1CCN(CC1=NCCN1)C2.Cl.Cl	-7.51	-7.8	-4.8	–	–	–	–
COc1cc2c(cc1OC)CN(CC1=NCCN1)CC2.Cl.Cl	-5.87	-6.13	< -5	–	–	–	–
CC1(C)c2ccccc2CCN1CC1=NCCN1.Cl.Cl	-6	-6.68	< -5	–	–	–	–
CC1Cc2ccccc2CN1CC1=NCCN1.Cl.Cl (stereo not drawn)	-6.9	-7.38	< -5	–	–	–	–
C=CCC1c2ccccc2CCN1CC1=NCCN1.Cl.Cl (stereo not drawn)	-5.97	-6.41	< -5	–	–	–	–
COc1ccc(OC)c2c1CCN(CC1=NCCN1)C2C.Cl.Cl (stereo not drawn)	–	–	-5.19	332	-7.02	0.2	-7.71

The next lines start with the values.

Log Ki [1]	Log Ki [2]	Log Ki [3]	Selectivity ratio [4]	Log Ki [5]	Ratio [6]	Log Ki [7]	SMILES
-6.42	-7.67	< -5	–	–	–	–	Cl.Cl.Clc1ccc2c(c1Cl)CCN(CC1=NCCN1)C2
-6.52	-7.68	< -5	–	–	–	–	Cl.Cl.Clc1ccc2c(c1Cl)CN(CC1=NCCN1)CC2
-6.13	-7.14	< -5	–	–	–	–	Cl.Cl.O=[N+]([O-])c1cccc2c1CCN(CC1=NCCN1)C2
–	–	< -5	15	-6.83	4	-6.18	Cl.Cl.Clc1ccc2c(c1)CCN(CC1=NCCN1)C2
-6.32	-7.77	-5.67	–	–	–	–	Cl.Cl.c1ccc2c(c1)CCN(CC1=NCCN1)C2
-7.65	-7.8	-5.68	–	–	–	–	Cl.Cl.Clc1cccc2c1CCN(CC1=NCCN1)C2
–	–	-5.8	7	-8.23	36	-6.67	Cl.Cl.Clc1cccc2c1CN(CC1=NCCN1)CC2
-6.17	-6.99	< -5	–	–	–	–	Cl.Nc1cccc2c1CCN(CC1=NCCN1)C2
-7.07	-8	-4.72	–	–	–	–	COc1cccc2c1CCN(CC1=NCCN1)C2.Cl.Cl
-7.48	-8.39	-5.55	–	–	–	–	Cl.Cl.Fc1cccc2c1CCN(CC1=NCCN1)C2
-7.14	-8.12	-5.5	–	–	–	–	Cl.Cl.Clc1ccc(Cl)c2c1CCN(CC1=NCCN1)C2
-7.71	-8.38	-6.05	–	–	–	–	Cl.Cl.Clc1cccc2c1CN(CC1=NCCN1)C2
-6.57	-7.38	-5.26	–	–	–	–	Cc1cccc2c1CCN(CC1=NCCN1)C2.Cl.Cl
-6.74	-7.62	-5.2	–	–	–	–	CC1c2cccc(Cl)c2CCN1CC1=NCCN1.Cl.Cl (stereo not drawn)
-7.25	-8.27	-5.5	–	–	–	–	Cl.Cl.Fc1cccc2c1CN(CC1=NCCN1)CC2
